# pIC50: −log10 of the molar value.
# Target: T1, BKB1 receptors (Homo sapiens, UniProt P46663)
# T1 construct: Human (IMR-90) lung fibroblast cells expressing native BKB1 receptors; endogenous in cells; host or cells: IMR-90 human lung fibroblasts, treated with human IL-1 to up-regulate BKB1
# T1 sequence (P46663 1-353): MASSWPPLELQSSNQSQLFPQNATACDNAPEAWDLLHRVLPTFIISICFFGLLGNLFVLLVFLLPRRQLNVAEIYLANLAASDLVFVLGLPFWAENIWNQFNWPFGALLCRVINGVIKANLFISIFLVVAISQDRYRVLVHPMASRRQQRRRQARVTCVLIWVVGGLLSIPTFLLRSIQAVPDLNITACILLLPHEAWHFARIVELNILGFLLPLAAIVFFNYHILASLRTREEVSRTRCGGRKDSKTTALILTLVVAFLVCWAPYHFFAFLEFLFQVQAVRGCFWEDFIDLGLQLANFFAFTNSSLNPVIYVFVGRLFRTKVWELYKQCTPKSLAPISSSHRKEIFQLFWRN
# Assay: Calcium Mobilization Assay (FLIPR), IMR-90 cells, BKB1
# Type: cell-based
# Details: IL-1 induced IMR-90 cells, agonist desArg10-kallidin (DAKD)
# Experimental: Calcium Mobilization Assay (FLIPR)—Human (IMR-90) lung fibroblast cells expressing native BKB1 receptors were harvested by trypsinization and seeded into black wall/clear bottom 96-well plates (Costar 3904; Corning Life Sciences, Acton, Mass.) at approximately 13,000 cells/well. After 1 day incubation, cells were treated with human IL-1 (0.35 ng/ml) in 10% FBS/MEM for 2 h to up-regulate BKB1 receptors. Induced cells were loaded with fluorescent calcium indicator by incubation with 2.3 µM Fluo-4/acetoxymethyl ester (Invitrogen) at 37° C. for 1.5 h in the presence of an anion transport inhibitor (2.5 mM probenecid in 1% FBS/MEM). Extracellular dye was removed by washing with assay buffer (2.5 mM probenecid, 0.1% BSA in 20 mM HEPES/HBSS without bicarbonate or phenol red, pH 7.5) and cell plates were kept in the dark until used. Test compounds were assayed at eight concentrations in triplicate.
row,pIC50,Compound
1,6.52,"COc1ccccc1CN(C(=O)C1CCCC1)C(C(=O)NCC1CCCO1)c1ccc(C)cc1 (stereo not drawn) [15 (mix), N-(2-methoxybenzyl)-N-{1-(4-methylphenyl)-2-oxo-2-[(tetrahydrofuran-2-ylmethyl)amino]ethyl}cyclopentanecarboxamide]"
2,4.90,"Cc1ccc(C(C(=O)NCC2CCCO2)N(CC2CCCC2)C(=O)Cc2ccccc2C)cc1 (stereo not drawn) [44 (mix), N-(cyclopentylmethyl)-2-(2-methylphenyl)-N-{1-(4-methylphenyl)-2-oxo-2-[(tetrahydrofuran-2-ylmethyl)amino]ethyl}acetamide]"
3,5.96,"Cc1ccc(C(C(=O)NCC2CCCO2)N(CC2CCCCC2)C(=O)CN(C)C)cc1 (stereo not drawn) [34 (mix), N-(cyclohexylmethyl)-2-(dimethylamino)-N-{1-(4-methylphenyl)-2-oxo-2-[(tetrahydrofuran-2-ylmethyl)amino]ethyl}acetamide]"
4,6.38,COc1ccccc1CN(C(=O)CC(C)C)C(C(=O)NCC1CCCO1)c1ccc(C)cc1 (stereo not drawn) [8 (mix)]
5,6.27,"COc1ccccc1CN(C(=O)Cc1cccc(F)c1F)[C@@H](C(=O)NC[C@H]1CCCO1)c1ccc(C)cc1 [Compound 3 (R,R), 2-(2,3-difluorophenyl)-N-(2-methoxybenzyl)-N-{(1R)-1-(4-methylphenyl)-2-oxo-2-[(2R)-(tetrahydrofuran-2-ylmethyl)amino]ethyl}acetamide]"
6,5.92,"Cc1ccc(C(C(=O)NCC2CCCO2)N(Cc2csc3ccccc23)C(=O)CN(C)C)cc1 (stereo not drawn) [39 (mix), N-(1-benzothiophen-3-ylmethyl)-2-(dimethylamino)-N-{1-(4-methylphenyl)-2-oxo-2-[(tetrahydrofuran-2-ylmethyl)amino]ethyl}acetamide]"
7,5.77,"Cc1ccc(C(C(=O)NCC2CCCO2)N(Cc2cccc(C)c2)C(=O)CN(C)C)cc1 (stereo not drawn) [35 (mix), 2-(dimethylamino)-N-(3-methylbenzyl)-N-{1-(4-methylphenyl)-2-oxo-2-[(tetrahydrofuran-2-ylmethyl)amino]ethyl}acetamide]"
8,5.85,COc1ccccc1CN(C(=O)Cc1ccc(C)cc1)C(C(=O)NCC1CCCO1)c1ccc(C)cc1 (stereo not drawn) [19 (mix)]
9,5.01,"Cc1ccc(C(C(=O)NCC2CCCO2)N(CC2CCCC2)C(=O)Cc2ccccc2)cc1 (stereo not drawn) [47 (mix), N-(cyclopentylmethyl)-N-{1-(4-methylphenyl)-2-oxo-2-[(tetrahydrofuran-2-yl)methylamino]ethyl}2-phenylacetamide]"
10,4.82,"COc1ccccc1CN(C(=O)C1CC1)C(C(=O)NCC1CCCO1)c1ccc(C)cc1 (stereo not drawn) [27 (mix), N-(2-methoxybenzyl)-N-{1-(4-methylphenyl)-2-oxo-2-[(tetrahydrofuran-2-ylmethyl)amino]ethyl}cyclopropanecarboxamide]"
11,4.93,"Cc1ccc(C(C(=O)NCC2CCCO2)N(Cc2cccnc2)C(=O)Cc2ccccc2C)cc1 (stereo not drawn) [46 (mix), 2-(2-methylphenyl)-N-(pyridin-3-ylmethyl)-N-{1-(4-methylphenyl)-2-oxo-2-[(tetrahydrofuran-2-ylmethyl)amino]ethyl}acetamide]"
12,5.02,"Cc1ccc(C(C(=O)NCC2CCCO2)N(Cc2cccn2C)C(=O)CN(C)C)cc1 (stereo not drawn) [43 (mix), 2-(dimethylamino)-N-[(1-methyl-1H-pyrrol-2-yl)methyl]-N-{1-(4-methylphenyl)-2-oxo-2-[(tetrahydrofuran-2-ylmethyl)amino]ethyl}acetamide]"
13,6.00,"COc1ccccc1CN(C(=O)c1ccc(O)cc1)C(C(=O)NCC1CCCO1)c1ccc(C)cc1 (stereo not drawn) [16 (mix), 4-hydroxy-N-(2-methoxybenzyl)-N-{1-(4-methylphenyl)-2-oxo-2-[(tetrahydrofuran-2-ylmethyl)amino]ethyl}benzamide]"
14,7.17,"COc1ccccc1CN(C(=O)Cn1ccnn1)C(C(=O)NCC1CCCO1)c1ccc(C)cc1 (stereo not drawn) [30 (mix), N-(2-methoxybenzyl)-N-{1-(4-methylphenyl)-2-oxo-2-[(tetrahydrofuran-2-ylmethyl)amino]ethyl}-2-(1H-1,2,3-triazol-1-yl)acetamide]"
15,6.34,"COc1ccccc1CN(C(=O)Cc1c(F)cccc1F)[C@@H](C(=O)NC[C@H]1CCCO1)c1ccc(C)cc1 [Compound 6 (R,R), 2-(2,6-difluorophenyl)-N-(2-methoxybenzyl)-N-{(1R)-1-(4-methylphenyl)-2-oxo-2-[(2R)-(tetrahydrofuran-2-ylmethyl)amino]ethyl}acetamide]"
16,7.01,"COc1ccccc1CN(C(=O)Cc1c[nH]cn1)C(C(=O)NCC1CCCO1)c1ccc(C)cc1 (stereo not drawn) [12 (mix), 2-(1H-imidazol-4-yl)-N-(2-methoxybenzyl)-N-{1-(4-methylphenyl)-2-oxo-2-[(tetrahydrofuran-2-ylmethyl)amino]ethyl}acetamide]"
17,5.68,"COc1ccccc1CN(C(=O)Cc1ccc(N(C)C)cc1)C(C(=O)NCC1CCCO1)c1ccc(C)cc1 (stereo not drawn) [29 (mix), 2-[(4-dimethylamino)phenyl]-N-(2-methoxybenzyl)-N-{1-(4-methylphenyl)-2-oxo-2-[(tetrahydrofuran-2-ylmethyl)amino]ethyl}acetamide]"
18,6.70,"COc1ccccc1CN(C(=O)Cc1ccccc1)[C@@H](C(=O)NC[C@H]1CCCO1)c1ccc(C)cc1 [Compound 7 (R,R), N-(2-methoxybenzyl)-N-{(1R)-1-(4-methylphenyl)-2-oxo-2-[(2R)-(tetrahydrofuran-2-ylmethyl)amino]ethyl}-2-phenylacetamide]"

# The next lines start with the compound.
row,Compound,pIC50
1,"Cc1ccc(C(C(=O)NCC2CCCO2)N(CC2CCCCC2)C(=O)Cc2ccccc2)cc1 (stereo not drawn) [37 (mix), N-(cyclohexylmethyl)-2-phenyl-N-{1-(4-methylphenyl)-2-oxo-2-[(tetrahydrofuran-2-ylmethyl)amino]ethyl}acetamide]",5.21
2,"Cc1ccc(C(C(=O)NCC2CCCO2)N(Cc2cccc(C)c2)C(=O)C2CC2C)cc1 (stereo not drawn) [38 (mix), 2-methyl-N-(3-methylbenzyl)-N-{1-(4-methylphenyl)-2-oxo-2-[(tetrahydrofuran-2-ylmethyl)amino]ethyl}cyclopropanecarboxamide]",4.90
3,"COc1ccccc1CN(C(=O)c1ccccc1[N+](=O)[O-])C(C(=O)NCC1CCCO1)c1ccc(C)cc1 (stereo not drawn) [26 (mix), N-(2-methoxybenzyl)-2-nitro-N-{1-(4-methylphenyl)-2-oxo-2-[(tetrahydrofuran-2-ylmethyl)amino]ethyl}benzamide]",4.84
4,"CCC(CC)CN(C(=O)Cc1ccc(F)cc1)C(C(=O)NCC1CCCO1)c1ccc(C)cc1 (stereo not drawn) [42 (mix), N-(2-ethylbutyl)-2-(4-fluorophenyl)-N-{1-(4-methylphenyl)-2-oxo-2-[(tetrahydrofuran-2-ylmethyl)amino]ethyl}acetamide]",5.02
5,COc1ccccc1CN(C(=O)CC(C)C)C(C(=O)NCC1CCCO1)c1ccc(C(F)(F)F)cc1 (stereo not drawn) [54 (mix)],6.28
6,"COc1ccccc1CN(C(=O)Cn1nnc2ccccc21)[C@@H](C(=O)NC[C@H]1CCCO1)c1ccc(C)cc1 [Compound 1 (R,R), 2-(1H-benzotriazol-1-yl)-N-(2-methoxybenzyl)-N-{[(1R)-1-(4-methylphenyl)]-2-oxo-2-[(2R)-(tetrahydrofuran-2-ylmethyl)amino]ethyl}acetamide]",7.37
7,"Cc1ccc(C(C(=O)NCC2CCCO2)N(CC2CCCC2)C(=O)Cc2cccc(C)c2)cc1 (stereo not drawn) [45 (mix), N-(cyclopentylmethyl)-2-(3-methylphenyl)-N-{1-(4-methylphenyl)-2-oxo-2-[(tetrahydrofuran-2-ylmethyl)amino]ethyl}acetamide]",4.88
8,"Cc1ccc(C(C(=O)NCC2CCCO2)N(CC2CCCC2)C(=O)Cc2c[nH]cn2)cc1 (stereo not drawn) [32 (mix), N-(cyclopentylmethyl)-2-(1H-imidazol-4-yl)-N-{1-(4-methylphenyl)-2-oxo-2-[(tetrahydrofuran-2-ylmethyl)amino]ethyl}acetamide]",6.10
9,"Cc1ccc(C(C(=O)NCC2CCCO2)N(CC(C)C)C(=O)Cc2c[nH]cn2)cc1 (stereo not drawn) [49 (mix), 2-(1H-imidazol-4-yl)-N-(2-methylpropyl)-N-{1-(4-methylphenyl)-2-oxo-2-[(tetrahydrofuran-2-ylmethyl)amino]ethyl}acetamide]",4.83
10,"Cc1ccc(C(C(=O)NCC2CCCO2)N(CC2CCCCC2)C(=O)CC2CCCC2)cc1 (stereo not drawn) [48 (mix), N-(cyclohexylmethyl)-2-cyclopentyl-N-{1-(4-methylphenyl)-2-oxo-2-[(tetrahydrofuran-2-ylmethyl)amino]ethyl}acetamide]",4.82
11,"COc1ccccc1CN(C(=O)CN1C(=O)c2ccccc2C1=O)C(C(=O)NCC1CCCO1)c1ccc(C)cc1 (stereo not drawn) [10 (mix), 2-(1,3-dioxoisoindolin-2-yl)-N-(2-methoxybenzyl)-N-{1-(4-methylphenyl)-2-oxo-2-[(tetrahydrofuran-2-ylmethyl)amino]-ethyl}acetamide]",6.52
12,"COc1ccccc1CN(C(=O)Cn1ccc2ccccc21)C(C(=O)NCC1CCCO1)c1ccc(C)cc1 (stereo not drawn) [31 (mix), 2-(1H-indol-1-yl)-N-(2-methoxybenzyl)-N-{1-(4-methylphenyl)-2-oxo-2-[(tetrahydrofuran-2-ylmethyl)amino]ethyl}acetamide]",6.57

# Source: patent US9409876B2, “Bradykinin receptor antagonists and pharmaceutical compositions containing them” (DOMPE' FARMACEUTICI S.P.A., priority 2013, dated 2016)
